Where “and” joins values, the source holds several entries; their conditions need not be identical. Equal entries are not always repeated. Where two headings read alike, the source gives them in different places.
What was measured:
WT CqsS [1] = system: T1, WT CqsS; format: cell-based; details: Treatment 1uM
T1 construct: made in house; host or cells: E. coli C43 (DE3), pET21b; used as inverted membrane vesicles

CqsS F166L = assay: CqsS-dependent repression of qrr4-gfp, CqsS F166L (Fig 7C); format: cell-based, Vibrio cholerae; details: Treatment 1uM; CqsS mutant F166L
CqsS D618N = system: T2, CqsS D618N; assay: CqsS D618N autophosphorylation in inverted membrane vesicles, 32P (Fig 7A); format: biochemical, Vibrio cholerae
T2 construct: made in house; host or cells: E. coli C43 (DE3), pET21b; used as inverted membrane vesicles

CqsS C170Y = assay: CqsS-dependent repression of qrr4-gfp, CqsS C170Y (Fig 7C); format: cell-based, Vibrio cholerae; details: Treatment 1uM; CqsS mutant C170Y
CqsS [2] = target: T3, CqsS (Vibrio cholerae serotype O1, UniProt Q9KM66); assay: cell-based; details: for Light production: strain WN1102; for RLU: Strain WN1102
T3 construct: endogenous in cells; host or cells: V. cholerae WN1102 (ΔcqsA ΔluxQ/pBB1), derived from C6706str2

CqsS F162A = assay: CqsS-dependent repression of qrr4-gfp, CqsS F162A (Fig 7C); format: cell-based, Vibrio cholerae; details: Treatment 1uM; CqsS mutant F162A
WT CqsS [3] = system: T1, WT CqsS; format: biochemical; details: for % Total Phosphorylation: CqsS WT
hapA = format: cell-based
[4] = system: QS-controlled luxCDABE operon; format: cell-based; details: for RLU: Strain AH371
[5] = system: QS-controlled luxCDABE operon; format: cell-based; details: for RLU: PluxPQ-CqsS::3XFLAG LuxS-CqsA-
CqsS [6] = format: cell-based; details: for CqsS Dimers / Relative dimers, Final experimental replicates / Relative dimers (CqsS, normalized to WT Ave): LuxS-CqsA-, AI-2 1 μM, CAI-1 5 μM; for CqsS Dimers / Relative dimers (CqsS, normalized to WT Ave): single replicates
qrr4 = format: cell-based

Question: Which results are given for CCn1nnnc1NCc1ccc(N2CCCC2)cc1 [#1]?
Answer: Qrr4-GFP/OD600 (WT CqsS [1]): 1321723 and 1319147 and 1356464; Qrr4-GFP/OD600 (CqsS F166L): 1372627 and 1402431 and 1341231; % Total Phosphorylation (CqsS D618N; agonist 0.32 uM): 64.1931% and 55.8048% and 58.0668% and 77.924% and 56.4082%; % Total Phosphorylation (CqsS D618N; agonist 10 uM): 1.9% and 2.181% and 3.3092% and 3.5805%; Qrr4-GFP/OD600 (CqsS C170Y): 18211780 and 19558860 and 23085030; Light production (CqsS [2]; Agonist 0.0119209 nM): 14433 RLU and 16087 RLU and 17053 RLU; Light production (CqsS [2]; Agonist 0.0476837 nM): 23351 RLU and 21676 RLU and 24048 RLU; Light production (CqsS [2]; Agonist 0.190735 nM): 38851 RLU and 41951 RLU and 36905 RLU; Light production (CqsS [2]; Agonist 0.762939 nM): 87702 RLU and 80982 RLU and 79024 RLU; Light production (CqsS [2]; Agonist 3.05176 nM): 716543 RLU and 579623 RLU and 556962 RLU; Light production (CqsS [2]; Agonist 12.207 nM): 18832900 RLU and 18957270 RLU and 17907730 RLU; Light production (CqsS [2]; Agonist 48.8281 nM): 80742000 RLU and 84094230 RLU and 86837650 RLU; Light production (CqsS [2]; Agonist 195.312 nM): 115208300 RLU and 122904000 RLU and 129103600 RLU; Light production (CqsS [2]; Agonist 781.25 nM): 116783100 RLU and 133656800 RLU and 131724500 RLU; Light production (CqsS [2]; Agonist 3125 nM): 109482900 RLU and 129285000 RLU and 130316000 RLU; Light production (CqsS [2]; Agonist 12500 nM): 93560740 RLU and 110559800 RLU and 116375500 RLU; Light production (CqsS [2]; Agonist 50000 nM): 59185800 RLU and 66981220 RLU and 65547470 RLU; fold more potent than CAI-1 (CqsS [2]; EC50 comparison): ~ 10 fold; RLU (CqsS [2]; agonist 0.0119209 nM): 1.70E+04 RLU and 1.69E+04 RLU and 1.12E+04 RLU; RLU (CqsS [2]; agonist 0.0476837 nM): 2.55E+04 RLU and 2.29E+04 RLU and 2.60E+04 RLU; RLU (CqsS [2]; agonist 0.190735 nM): 4.47E+04 RLU and 4.12E+04 RLU and 4.19E+04 RLU; RLU (CqsS [2]; agonist 0.762939 nM): 6.42E+04 RLU and 6.05E+04 RLU and 7.48E+04 RLU; RLU (CqsS [2]; agonist 3.05176 nM): 2.06E+05 RLU and 2.32E+05 RLU and 3.12E+05 RLU; RLU (CqsS [2]; agonist 12.207 nM): 1.01E+07 RLU and 9.84E+06 RLU and 1.23E+07 RLU; RLU (CqsS [2]; agonist 48.8281 nM): 9.23E+07 RLU and 8.51E+07 RLU and 1.09E+08 RLU; RLU (CqsS [2]; agonist 195.312 nM): 1.65E+08 RLU and 1.58E+08 RLU and 1.92E+08 RLU; RLU (CqsS [2]; agonist 781.25 nM): 1.94E+08 RLU and 2.03E+08 RLU and 2.28E+08 RLU; RLU (CqsS [2]; agonist 3125 nM): 2.05E+08 RLU and 2.11E+08 RLU and 2.23E+08 RLU; RLU (CqsS [2]; agonist 12500 nM): 1.88E+08 RLU and 1.94E+08 RLU and 1.93E+08 RLU; RLU (CqsS [2]; agonist 50000 nM): 1.33E+08 RLU and 1.29E+08 RLU; EC50 (CqsS [2]; light production, reporter strain WN1102, 4 h at 30 °C): 4 nM; Qrr4-GFP/OD600 (CqsS F162A): 15523160 and 14988240 and 15125460; % Total Phosphorylation (WT CqsS [3]; Agonist 0.1 uM): 100.558% and 115.09% and 103.96% and 101.973%; % Total Phosphorylation (WT CqsS [3]; Agonist 0.5 uM): 68.5791% and 92.92% and 82.55% and 69.9852%; % Total Phosphorylation (WT CqsS [3]; Agonist 1 uM): 45.0881% and 63.83% and 58.45% and 44.3406%; % Total Phosphorylation (WT CqsS [3]; Agonist 2.5 uM): 26.3754% and 21.56% and 17.64% and 21.3677%; % Total Phosphorylation (WT CqsS [3]; Agonist 5 uM): 11.5601% and 8.94% and 7.65% and 9.2554%; % Total Phosphorylation (WT CqsS [3]; Agonist 10 uM): 6.306% and 5.77% and 3.8% and 4.014%; % Total Phosphorylation (WT CqsS [3]; Agonist 20 uM): 3.59% and 2.41% and 2.332%; % Total Phosphorylation (WT CqsS [3]; Agonist 30 uM): 2.867% and 2.2% and 1.97% and 1.073%; % Total Phosphorylation (WT CqsS [3]; Agonist 100 uM): 1.456% and 1.61% and 2.02% and 0.9371%; % Total Phosphorylation (WT CqsS [3]; Agonist 200 uM): 0.8391% and 0.1631%; inhibition of WT CqsS autophosphorylation (WT CqsS [3]; saturating concentration (Fig 7B)): 99%

Question: What does the source list for C[C@]12OC[C@H](O)[C@@]1(O)O[B-](O)(O)O2 [AI-2, (2S, 4S)-2-methyl-2,3,3,4-tetrahydroxytetrahydrofuran borate]?
Answer: increase in hapA expression (hapA; LuxQ+ AI-2- strain (ΔcqsS ΔcqsR ΔvpsS ΔluxS)): 27 fold; increase in hapA expression (hapA; ΔcqsA ΔluxS strain, HCD): 4 fold; Light production ([4]; LuxS-CqsA- +AI-2 1 μM, OD600 0.0275): 5854546 RLU; Light production ([4]; LuxS-CqsA- +AI-2 1 μM, OD600 0.0589): 5025467 RLU; Light production ([4]; LuxS-CqsA- +AI-2 1 μM, OD600 0.2147): 1280857 RLU; Light production ([4]; LuxS-CqsA- +AI-2 1 μM, OD600 0.4541): 1704470 RLU; Light production ([4]; LuxS-CqsA- +AI-2 1 μM, OD600 1.201): 1856786 RLU; Light production ([4]; LuxS-CqsA- +AI-2 1 μM, OD600 1.481): 34976370 RLU; Light production ([4]; LuxS-CqsA- +AI-2 1 μM, OD600 1.867): 25388320 RLU; Light production ([4]; LuxS-CqsA- +AI-2 1 μM, OD600 3.776): 12473520 RLU; Light production ([4]; LuxS-CqsA-, AI-2 1 μM, CAI-1 5 μM, OD600 0.005): 108432 RLU; RLU ([4]; agonist 0.0476837 nM): 2.35E+03 RLU and 4.30E+03 RLU and 4.28E+03 RLU; RLU ([4]; agonist 0.762939 nM): 2.47E+03 RLU and 4.79E+03 RLU and 4.30E+03 RLU; RLU ([4]; agonist 3.05176 nM): 2.44E+03 RLU and 2.42E+03 RLU and 2.17E+03 RLU; RLU ([4]; agonist 12.207 nM): 2.38E+03 RLU and 4.73E+03 RLU and 4.30E+03 RLU; RLU ([4]; agonist 48.8281 nM): 9.41E+03 RLU and 7.14E+03 RLU and 8.89E+03 RLU; RLU ([4]; agonist 195.312 nM): 2.21E+04 RLU and 3.23E+04 RLU and 2.62E+04 RLU; RLU ([4]; agonist 781.25 nM): 6.41E+04 RLU and 4.85E+04 RLU and 5.29E+04 RLU; RLU ([4]; agonist 3125 nM): 6.25E+04 RLU and 6.51E+04 RLU and 5.68E+04 RLU; RLU ([4]; agonist 12500 nM): 7.03E+04 RLU and 7.29E+04 RLU and 6.20E+04 RLU; increase in light production ([4]; saturating autoinducer, HCD, vs untreated ΔcqsA ΔluxS): 100 fold; RLU ([5]; OD600 0.0532): 1.35E+07 RLU; RLU ([5]; OD600 0.2928): 9.01E+07 RLU; RLU ([5]; OD600 0.826): 1.12E+09 RLU; RLU ([5]; OD600 1.094): 3.16E+09 RLU; RLU ([5]; OD600 1.626): 2.09E+10 RLU; RLU ([5]; OD600 2.281): 2.23E+10 RLU; QS response when cqsS is under the luxPQ promoter ([5]; S9B Fig): caused premature induction of QS; Relative dimers, Average of 111816 reps (CqsS [6]; HCD): 0.8076 and 0.9392; CqsS Dimers (CqsS [6]; HCD (OD600 = 2.0)): 120.316 and 41.5193 and 39.7812 and 190.837 and 226.59 and 73.4627 and 88.226 and 103.067; Relative dimers, Final experimental replicates (CqsS [6]; HCD): 0.8076 and 0.9392 and 0.977 and 1.14 and 0.4129 and 0.3956; Relative dimers (CqsS, normalized to WT Ave) (CqsS [6]; HCD): 0.7384 and 0.8768 and 0.8534 and 1.025 and 0.977 and 1.14 and 0.4129 and 0.3956; Relative dimers, Average of 111816 reps (CqsS [6]; LCD): 1.105 and 0.8147; CqsS Dimers (CqsS [6]; LCD (OD600 = 0.2)): 53.516 and 13.7214 and 12.1436 and 82.1482 and 72.8907 and 15.3978 and 28.2649 and 41.282; Relative dimers, Final experimental replicates (CqsS [6]; LCD): 1.105 and 0.8147 and 1.157 and 1.5 and 0.8624 and 0.7633; Relative dimers (CqsS, normalized to WT Ave) (CqsS [6]; LCD): 1.171 and 1.039 and 0.5746 and 1.055 and 1.157 and 1.5 and 0.8624 and 0.7633; CqsS protein levels (CqsS [6]; ΔcqsA ΔluxS mutant, LCD and HCD): increased CqsS protein levels to nearly that present in the WT; RLU relative to Average WT (qrr4; LuxS-CqsA- strain + autoinducer, Average WT 115335416.84): 29.34 and 29.68 and 31.98; RLU, average per biological replicate (Totals) (qrr4; LuxS-CqsA- strain + autoinducer, Rep 1-3): 3.38E+09 RLU and 3.42E+09 RLU and 3.69E+09 RLU; reduction of qrr4-luxCDABE expression (qrr4; saturating autoinducer, ΔcqsA ΔluxS mutant): 2 fold
